Values of other authors, collected in US11554095B1, “Mitomycin-C bladder instillation syringe kit” (Edge Pharma, LLC, priority 2019, dated 2023).

Columns and labels:
[1] = urine

CO[C@@]12[C@H](COC(N)=O)C3=C(C(=O)C(C)=C(N)C3=O)N1C[C@@H]1N[C@@H]12 [MMC, Mitomycin-C]
decrease in MMC concentrations ([1]; pH 5, after 2 hours): 44%
loss of MMC ([1]; pH 7, after 2 hours): less than 4%
pH of solution in water (5 mg/mL solution in water): 6.0-7.5
pH of saturated solution (saturated solution): 5.0-9.0
